According to US12709731B2, “Method of producing biological material” (NTT, Inc., priority 2021, dated 2026):

What was measured:
Assay type in all cases: cell-based
Cyanidioschyzon merolae [1] = assay: Test 1: color of microorganism-containing liquid after suspension culture with regulator; conditions: for contribution to a reduction of light-harvesting pigments: added to MA2 culture medium, 18 hours culture, judged from color in FIG. 3; for color of the microorganism-containing liquid after cultivation (FIG. 3): MA2 culture medium, light condition, 18 hours after addition
Protocol: Unicellular red algae were cultured in suspension under a light condition and a regulator was added thereto. An MA2 culture medium was used as a culture medium. Cyanidioschyzon merolae were used as unicellular red algae. Dimethyl 2-oxoglutarate was used as the regulator. Then, after the regulator was added, the culture was further continued for 18 hours.
The above-mentioned cultivation was carried out for each case where the final concentrations of dimethyl 2-oxoglutarate were adjusted to 10, 20, 40 and 80 mmmol/L (=mM). In addition, cultivation was also carried out in a similar manner except that the addition of dimethyl 2-oxoglutarate was omitted.
Thereafter, each of microorganism-containing liquids containing unicellular red algae and the culture medium was imaged.
In addition, cultivation was carried out in a similar manner except that 2-oxoglutaric acid was used instead of using dimethyl 2-oxoglutarate. Thereafter, each of dispersion microorganism-containing liquids containing unicellular red algae and the culture medium was imaged.
FIG. 3 is an image obtained by imaging the microorganism-containing liquids after cultivation. In FIG. 3, “2-OG” and “dimethyl 2-OG” represent 2-oxoglutaric acid and dimethyl 2-oxoglutarate, respectively.

Cyanidioschyzon merolae [2] = assay: Test 2: amount of chlorophyll a in microorganism-containing liquid after addition of regulator; conditions: final concentration 2 mmol/L; immediately before, 6 hours and 24 hours after addition; average of three independent tests; control increased
Protocol: Unicellular red algae were cultured in suspension under a light condition and a regulator was added thereto. An MA2 culture medium was used as a culture medium. Cyanidioschyzon merolae were used as unicellular red algae. Dimethyl 2-oxoglutarate was used as the regulator. The regulator was added so that the final concentration of dimethyl 2-oxoglutarate was 2 mmol/L. After the regulator was added, the cultivation was further continued. Then, the amounts of chlorophyll a contained in the microorganism-containing liquids were determined immediately before the regulator was added, 6 hours after the regulator was added, and 24 hours after the regulator was added. In addition, in parallel with the cultivation, cultivation was carried out as described above in a similar manner except that no regulator was added. The amount of chlorophyll a contained in the microorganism-containing liquid was also determined in the same manner as described above. FIG. 4 is a graph showing an example of the effect of the addition of the regulator on the amounts of chlorophyll a. […] Furthermore, “dimethyl 2-OG” indicates the results obtained for unicellular red algae cultured by adding dimethyl 2-oxoglutarate to the culture medium as a regulator.

Cyanidioschyzon merolae [3] = assay: Test 3: amount of phycocyanin in microorganism-containing liquid after addition of regulator; conditions: final concentration 2 mmol/L; every culture time as in test 2 (0, 6, 24 hours); average of three independent tests; control increased
Protocol: Cultivation was carried out in a similar manner to that in the test 2 and the amounts of phycocyanin contained in the microorganism-containing liquids were determined in every culture time. FIG. 5 is a graph showing an example of the effect of the addition of a regulator on the amount of phycocyanin. […] Furthermore, “dimethyl 2-OG” indicates the results obtained for unicellular red algae cultured by adding dimethyl 2-oxoglutarate to the culture medium as a regulator.

[4] = final concentrations 10, 20, 40 and 80 mmmol/L (=mM), compared with no regulator added

Compound	contribution to a reduction of light-harvesting pigments (Cyanidioschyzon merolae [1])	color of the microorganism-containing liquid after cultivation (FIG. 3) (Cyanidioschyzon merolae [1]; final concentration 20 mmol/L or higher)	color of the microorganism-containing liquid after cultivation (FIG. 3) (Cyanidioschyzon merolae [1]; [4])	amount of chlorophyll a contained in the microorganism-containing liquid (FIG. 4) (Cyanidioschyzon merolae [2])	amount of phycocyanin contained in the microorganism-containing liquid (FIG. 5) (Cyanidioschyzon merolae [3])
COC(=O)CCC(=O)C(=O)OC [dimethyl 2-oxoglutarate]	greatly contributes	substantially colorless	lighter than those of the microorganism-containing liquids with no regulator added	decreased according to the culture time	decreased according to the culture time
O=C(O)CCC(=O)C(=O)O [2-oxoglutaric acid, 2-Oxoglutaric acid, reference compound]	little contributed	–	the same color as that in the case with no regulator added	–	–
